Experimental data taken from patent US5698670A, “Aureobasidins” (priority 1993, dated 1997).
In brackets after ≈: the same amount, converted by molar mass. Read-outs that look alike come from different tables or passages of the source. Numbered stars: 1 amine (or outer) side, 2 acyl side, 3 side chain; on linkers, the order of the positions; unused ones are H or OH. Square brackets hold non-standard residues; d marks the D form. Peptide text beside a SMILES is read from it. * marks the point of attachment. X1 = CC[C@@H](C)[C@@H](O[*:1])C(=O)[*:2]; NMeVal(β-OH) = CN[C@H](C(=O)O)C(C)(C)O; NMeF = CN[C@@H](Cc1ccccc1)C(=O)O; aIle = CC[C@@H](C)[C@H](N)C(=O)O; Cyclohexylmethyl = C1CCC(C*)CC1; Cha = N[C@@H](CC1CCCCC1)C(=O)O; dNMeV = CN[C@@H](C(=O)O)C(C)C; NMeV = CN[C@H](C(=O)O)C(C)C; dNMeS = CN[C@H](CO)C(=O)O; dNMeA = CN[C@H](C)C(=O)O; Bn = c1ccc(C*)cc1

Experiments:
[1] = amide bond, 27-membered ring, PyBroP/DIEA, CH2Cl2
[2] = system: Candida albicans TIMM0136; experiment: MIC by agarose plate dilution method; type: cell-based; conditions: saburo-dextrose agarose culture, 30° C., 2 days
Description: (§1) MIC was measured by agarose plate dilution method (cultivated at 30° C. for 2 days) using saburo-dextrose agarose culture (glucose 2 W/V %, polipeptone 1 W/V %, agarose 1.5 W/V %). Control was Aureobasidin A (AbA).

[3] = system: Candida albicans TIMM0171; experiment: MIC by agarose plate dilution method; type: cell-based; conditions: saburo-dextrose agarose culture, 30° C., 2 days
Description: as §1

[4] = system: Candida glabrata TIMM1062; experiment: MIC by agarose plate dilution method; type: cell-based; conditions: saburo-dextrose agarose culture, 30° C., 2 days
Description: as §1

Candida kefyr TIMM0301 = experiment: MIC by agarose plate dilution method; type: cell-based; conditions: saburo-dextrose agarose culture, 30° C., 2 days
Description: as §1

[5] = system: Aspergillus fumigatus TIMM2766; type: cell-based
Description: as §1

[6] = system: Cryptococcus neoformans TIMM0354; type: cell-based; conditions: for activity for Cryptococcus compared with Aureobasidin A: in words
Description: as §1

[7] = Aspergillus fumigatus TIMM2766, saburo-dextrose agarose culture, 30° C., 2 days
[8] = Cryptococcus neoformans TIMM0354, saburo-dextrose agarose culture, 30° C., 2 days

Row | Structure (SMILES) | MIC [2] | MIC [3] | MIC [4] | MIC (Candida kefyr TIMM0301) | MIC [5, 7] | MIC [6, 8] | MIC ([6]; TIMM0354) | further results
1 | CC[C@@H](C)[C@@H]1NC(=O)[C@@H]2CCCN2C(=O)[C@H](Cc2ccccc2)N(C)C(=O)[C@H](CC2CCCCC2)NC(=O)[C@H](C(C)C)N(C)C(=O)[C@@H]([C@H](C)CC)OC(=O)[C@H](C(C)(C)O)N(C)C(=O)[C@H](CC(C)C)NC(=O)[C@H](C(C)C)N(C)C1=O [Compound 6, cyclo(L -aIle-L -MeVal-L -Leu-L -βHOMeVal-D -Hmp-L -MeVal-L -Cha-L -MePhe-L -Pro)] (cyclo([aIle][NMeV]L[NMeVal(β-OH)][X1][NMeV][Cha][NMeF]P)) | 0.39 µg/mL (≈ 0.352 µM) | 0.20 µg/mL (≈ 0.181 µM) | 1.56 µg/mL (≈ 1.41 µM) | 1.56 µg/mL (≈ 1.41 µM) | > 25 µg/mL | 0.20 µg/mL (≈ 0.181 µM) | 0.10 to 0.39 µg/mL | ring closure, isolated yield ([1]; from H-aIle-MeVal-Leu-βHOMeVal-dHmp-MeVal-Cha-MePhe-Pro-OH?, 1.01 mM, 25.0 °C): 23.9%
2 | CC[C@@H](C)[C@@H]1NC(=O)[C@@H]2CCCN2C(=O)[C@@H](C(C)C)N(C)C(=O)[C@H](Cc2ccccc2)NC(=O)[C@H](C(C)C)N(C)C(=O)[C@@H]([C@H](C)CC)OC(=O)[C@H](C(C)(C)O)N(C)C(=O)[C@H](CC(C)C)NC(=O)[C@H](C(C)C)N(C)C1=O | – | – | – | – | – | – | – | ring closure, isolated yield ([1]; from H-aIle-MeVal-Leu-βHOMeVal-dHmp-MeVal-Phe-dMeVal-Pro-OH, 1.0 mM, 25.0 °C): 35%
3 | CC[C@@H](C)[C@@H]1NC(=O)[C@@H]2CCCN2C(=O)[C@@H](C)N(C)C(=O)[C@H](Cc2ccc(OCc3ccccc3)cc2)NC(=O)[C@H](C(C)C)N(C)C(=O)[C@@H]([C@H](C)CC)OC(=O)[C@H](C(C)(C)O)N(C)C(=O)[C@H](CC(C)C)NC(=O)[C@H](C(C)C)N(C)C1=O | – | – | – | – | – | – | – | ring closure, isolated yield ([1]; from H-aIle-MeVal-Leu-βHOMeVal-dHmp-MeVal-Tyr(Bzl)-dMeAla-Pro-OH, 1.0 mM): 41.5%
4 | CC[C@@H](C)[C@@H]1NC(=O)[C@@H]2CCCN2C(=O)[C@@H](C(C)C)N(C)C(=O)[C@H](CC2CCCCC2)NC(=O)[C@H](C(C)C)N(C)C(=O)[C@@H]([C@H](C)CC)OC(=O)[C@H](C(C)(C)O)N(C)C(=O)[C@H](CC(C)C)NC(=O)[C@H](C(C)C)N(C)C1=O [Compound 8, cyclo(L -aIle-L -MeVal-L -Leu-L -βHOMeVal-D -Hmp-L -MeVal-L -Cha-D -MeVal-L -Pro)] (cyclo([aIle][NMeV]L[NMeVal(β-OH)][X1][NMeV][Cha][dNMeV]P)) | 0.10 µg/mL (≈ 0.0944 µM) | 0.05 µg/mL (≈ 0.0472 µM) | 0.78 µg/mL (≈ 0.736 µM) | 0.78 µg/mL (≈ 0.736 µM) | > 25 µg/mL | 0.39 µg/mL (≈ 0.368 µM) | 0.10 to 0.39 µg/mL | ring closure, isolated yield ([1]; from H-aIle-MeVal-Leu-βHOMeVal-dHmp-MeVal-Cha-dMeVal-Pro-OH, 1.0 mM): 20.5%
5 | CC[C@@H](C)[C@@H]1NC(=O)[C@@H]2CCCN2C(=O)[C@@H](C)N(C)C(=O)[C@H](Cc2ccc(OCC3CCCCC3)cc2)NC(=O)[C@H](C(C)C)N(C)C(=O)[C@@H]([C@H](C)CC)OC(=O)[C@H](C(C)(C)O)N(C)C(=O)[C@H](CC(C)C)NC(=O)[C@H](C(C)C)N(C)C1=O [Compound 12, cyclo(L -aIle-L -MeVal-L -Leu-L -βHOMeVal-D -Hmp-L -MeVal-L -Tyr(c-C6 H11 --CH2 --)-D -MeAla-L -Pro)] (cyclo([aIle][NMeV]L[NMeVal(β-OH)][X1][NMeV]Y(Cyclohexylmethyl)[dNMeA]P)) | 0.10 µg/mL (≈ 0.0879 µM) | 0.39 µg/mL (≈ 0.343 µM) | 0.39 µg/mL (≈ 0.343 µM) | 1.56 µg/mL (≈ 1.37 µM) | 1.56 µg/mL (≈ 1.37 µM) | 0.20 µg/mL (≈ 0.176 µM) | 0.10 to 0.39 µg/mL | ring closure, isolated yield ([1]; from H-aIle-MeVal-Leu-βHOMeVal-dHmp-MeVal-Tyr(c-C6H11-CH2)-dMeAla-Pro-OH, 1.0 mM): 52.3%; MIC ([5]; TIMM2766): 1.56 to 25 µg/mL; activity for Cryptococcus compared with Aureobasidin A [6]: stronger activity than Aureobasidin A
6 | CC[C@@H](C)[C@@H]1NC(=O)[C@@H]2CCCN2C(=O)[C@@H](C)N(C)C(=O)[C@H](COCc2ccccc2)NC(=O)[C@H](C(C)C)N(C)C(=O)[C@@H]([C@H](C)CC)OC(=O)[C@H](C(C)(C)O)N(C)C(=O)[C@H](CC(C)C)NC(=O)[C@H](C(C)C)N(C)C1=O [Compound 7, cyclo(L -aIle-L -MeVal-L -Leu-L -βHOMeVal-D -Hmp-L -MeVal-L -Ser(Bzl)-D -MeAla-L -Pro)] (cyclo(L[NMeVal(β-OH)][X1][NMeV]S(Bn)[dNMeA]P[aIle][NMeV])) | – | – | – | – | – | – | 0.10 to 0.39 µg/mL | ring closure, isolated yield ([1]; from H-aIle-MeVal-Leu-βHOMeVal-dHmp-MeVal-Ser(Bzl)-dMeAla-Pro-OH, 1.0 mM, 25.0 °C): 45.2%
7 | CC[C@@H](C)[C@@H]1NC(=O)[C@@H]2CCCN2C(=O)[C@@H](CO)N(C)C(=O)[C@H](CC2CCCCC2)NC(=O)[C@H](C(C)C)N(C)C(=O)[C@@H]([C@H](C)CC)OC(=O)[C@H](C(C)(C)O)N(C)C(=O)[C@H](CC(C)C)NC(=O)[C@H](C(C)C)N(C)C1=O [Compound 9, cyclo(L -aIle-L -MeVal-L -Leu-L -βHOMeVal-D -Hmp-L -MeVal-L -Cha-D -MeSer-L -Pro)] (cyclo([aIle][NMeV]L[NMeVal(β-OH)][X1][NMeV][Cha][dNMeS]P)) | 0.20 µg/mL (≈ 0.191 µM) | 0.20 µg/mL (≈ 0.191 µM) | 0.78 µg/mL (≈ 0.745 µM) | 0.78 µg/mL (≈ 0.745 µM) | > 25 µg/mL | 0.20 µg/mL (≈ 0.191 µM) | 0.10 to 0.39 µg/mL | –
8 | CC[C@@H](C)[C@@H]1NC(=O)[C@@H]2CCCN2C(=O)[C@@H](C)N(C)C(=O)[C@H](CC2CCCCC2)NC(=O)[C@H](C(C)C)N(C)C(=O)[C@@H]([C@H](C)CC)OC(=O)[C@H](C(C)(C)O)N(C)C(=O)[C@H](CC(C)C)NC(=O)[C@H](C(C)C)N(C)C1=O [Compound 3, cyclo(L -aIle-L -MeVal-L -Leu-L -βHOMeVal-D -Hmp-L -MeVal-L -Cha-D -MeAla-L -Pro)] (cyclo([aIle][NMeV]L[NMeVal(β-OH)][X1][NMeV][Cha][dNMeA]P)) | 0.0125 µg/mL (≈ 0.0121 µM) | 0.025 µg/mL (≈ 0.0242 µM) | 0.10 µg/mL (≈ 0.097 µM) | 0.20 µg/mL (≈ 0.194 µM) | 3.12 µg/mL (≈ 3.03 µM) | 0.10 µg/mL (≈ 0.097 µM) | 0.10 to 0.39 µg/mL | ring closure, isolated yield ([1]; from H-aIle-MeVal-Leu-βHOMeVal-dHmp-MeVal-Cha-dMeAla-Pro-OH, 1.0 mM, 25.0 °C): 28.6%; MIC ([5]; TIMM2766): 1.56 to 25 µg/mL; activity for Cryptococcus compared with Aureobasidin A [6]: stronger activity than Aureobasidin A
9 | CC[C@@H](C)[C@@H]1NC(=O)[C@@H]2CCCN2C(=O)[C@@H](C)N(C)C(=O)[C@H](Cc2ccc(F)cc2)NC(=O)[C@H](C(C)C)N(C)C(=O)[C@@H]([C@H](C)CC)OC(=O)[C@H](C(C)(C)O)N(C)C(=O)[C@H](CC(C)C)NC(=O)[C@H](C(C)C)N(C)C1=O | – | – | – | – | – | – | – | ring closure, isolated yield ([1]; from H-aIle-MeVal-Leu-βHOMeVal-dHmp-MeVal-pFPhe-dMeAla-Pro-OH, 1.0 mM, 25.0 °C): 29.8%
10 | CC[C@@H](C)[C@@H]1NC(=O)[C@@H]2CCCN2C(=O)[C@@H](COCc2ccccc2)N(C)C(=O)[C@H](CC2CCCCC2)NC(=O)[C@H](C(C)C)N(C)C(=O)[C@@H]([C@H](C)CC)OC(=O)[C@H](C(C)(C)O)N(C)C(=O)[C@H](CC(C)C)NC(=O)[C@H](C(C)C)N(C)C1=O | – | – | – | – | – | – | – | ring closure, isolated yield ([1]; from H-aIle-MeVal-Leu-βHOMeVal-dHmp-MeVal-Cha-dMeSer(Bzl)-Pro-OH, 1.0 mM): 34.3%
11 | CC[C@@H](C)[C@@H]1NC(=O)[C@@H]2CCCN2C(=O)[C@@H](C)N(C)C(=O)[C@H](CC(C)C)NC(=O)[C@H](C(C)C)N(C)C(=O)[C@@H]([C@H](C)CC)OC(=O)[C@H](C(C)(C)O)N(C)C(=O)[C@H](CC(C)C)NC(=O)[C@H](C(C)C)N(C)C1=O [Compound 5, cyclo(L -aIle-L -MeVal-L -Leu-L -βHOMeVal-D -Hmp-L -MeVal-L -Leu-D -MeAla-L -Pro)] (cyclo(L[dNMeA]P[aIle][NMeV]L[NMeVal(β-OH)][X1][NMeV])) | – | – | – | – | – | – | 0.10 to 0.39 µg/mL | ring closure, isolated yield ([1]; from H-aIle-MeVal-Leu-βHOMeVal-dHmp-MeVal-Leu-dMeAla-Pro-OH, 1.0 mM, 25.0 °C): 39.4%
12 | CC[C@@H](C)[C@@H]1NC(=O)[C@@H]2CCCN2C(=O)[C@@H](C)N(C)C(=O)[C@H](Cc2ccccc2)NC(=O)[C@H](C(C)C)N(C)C(=O)[C@@H]([C@H](C)CC)OC(=O)[C@H](C(C)(C)O)N(C)C(=O)[C@H](CC(C)C)NC(=O)[C@H](C(C)C)N(C)C1=O [Compound 1, cyclo(L -aIle-L -MeVal-L -Leu-L -βHOMeVal-D -Hmp-L -MeVal-L -Phe-D -MeAla-L -Pro)] (cyclo([aIle][NMeV]L[NMeVal(β-OH)][X1][NMeV]F[dNMeA]P)) | 0.05 µg/mL (≈ 0.0488 µM) | 0.05 µg/mL (≈ 0.0488 µM) | 0.20 µg/mL (≈ 0.195 µM) | 0.20 µg/mL (≈ 0.195 µM) | – | 3.12 µg/mL (≈ 3.04 µM) | – | ring closure, isolated yield ([1]; from H-aIle-MeVal-Leu-βHOMeVal-dHmp-MeVal-Phe-dMeAla-Pro-OH, 0.97 mM, 25.0 °C): 55.5%
